Measured values taken from ChEMBL document CHEMBL1926501 (J Med Chem, 2011).

Key:
[1] = target: T1, Amine oxidase [flavin-containing] B (Rattus norvegicus, UniProt P19643); assay: Time-dependent inhibition of rat liver mitochondrial MAO-B using phenylethylamine at 45 nM; settings: 0.045 µM
T1 sequence (P19643 whole entry): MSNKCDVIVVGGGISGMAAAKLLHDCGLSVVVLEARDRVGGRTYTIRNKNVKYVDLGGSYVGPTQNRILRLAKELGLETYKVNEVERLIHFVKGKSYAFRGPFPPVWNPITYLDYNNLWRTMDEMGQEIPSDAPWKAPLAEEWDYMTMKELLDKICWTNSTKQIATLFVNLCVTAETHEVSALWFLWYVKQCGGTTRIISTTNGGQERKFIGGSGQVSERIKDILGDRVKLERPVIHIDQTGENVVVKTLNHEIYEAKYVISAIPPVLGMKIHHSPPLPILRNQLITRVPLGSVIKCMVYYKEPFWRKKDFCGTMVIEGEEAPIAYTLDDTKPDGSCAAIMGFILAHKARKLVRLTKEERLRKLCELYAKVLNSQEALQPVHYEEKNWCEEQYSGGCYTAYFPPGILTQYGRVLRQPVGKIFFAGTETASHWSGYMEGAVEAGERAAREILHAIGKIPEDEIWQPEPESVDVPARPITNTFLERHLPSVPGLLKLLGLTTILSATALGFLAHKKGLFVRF

[2] = target: T2, Amine oxidase [flavin-containing] A (Rattus norvegicus, UniProt P21396); assay: Irreversible inhibition of rat liver mitochondrial MAO-A using 5-hydroxytryptamine as substrate at 6 nM preincubated for 30 mins measured after three consecutive centrifugation; settings: 0.006 µM
T2 sequence (P21396 whole entry): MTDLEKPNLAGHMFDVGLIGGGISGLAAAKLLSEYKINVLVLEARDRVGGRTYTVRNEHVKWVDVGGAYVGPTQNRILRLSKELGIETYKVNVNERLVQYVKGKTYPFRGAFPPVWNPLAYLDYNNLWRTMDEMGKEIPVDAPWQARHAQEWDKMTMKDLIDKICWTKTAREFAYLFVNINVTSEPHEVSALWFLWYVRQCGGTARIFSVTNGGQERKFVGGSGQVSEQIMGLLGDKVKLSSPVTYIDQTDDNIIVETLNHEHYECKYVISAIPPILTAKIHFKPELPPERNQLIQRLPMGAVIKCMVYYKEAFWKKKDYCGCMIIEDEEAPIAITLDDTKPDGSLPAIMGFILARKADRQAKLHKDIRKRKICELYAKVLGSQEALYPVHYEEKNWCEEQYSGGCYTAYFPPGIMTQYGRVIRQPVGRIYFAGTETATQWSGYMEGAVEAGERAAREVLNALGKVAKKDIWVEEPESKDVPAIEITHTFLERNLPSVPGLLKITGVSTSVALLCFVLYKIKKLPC

[3] = target: Cholinesterase (Homo sapiens, UniProt P06276); assay: Inhibition of human serum BuchE using butyrylthiocholine iodide as substrate preincubated for 10 mins measured after 15 mins of substrate addition by Ellman's method
[4] = target: T1, Amine oxidase [flavin-containing] B; assay: Reversible inhibition of rat liver mitochondrial MAO-B using phenylethylamine assessed as recovered enzyme activity at 45 nM preincubated for 30 mins measured after three consecutive washes with buffer; set-up: scale not given: the % may be the effect or the level left; settings: read-out: Activity
[5] = target: T2, Amine oxidase [flavin-containing] A; assay: Irreversible inhibition of rat liver mitochondrial MAO-A using 5-hydroxytriptamine as substrate assessed as substrate consumption at 10 nM preincubated for 30 mins measured up to 420 mins; settings: 7 h, 0.01 µM
[6] = target: T3, Acetylcholinesterase (Homo sapiens, UniProt P22303); assay: Inhibition of cerebral human recombinant AchE expressed in HEK293 cells using acetylthiocholine iodide as substrate preincubated for 10 mins measured after 15 mins of substrate addition by Ellman's method
[7] = target: T2, Amine oxidase [flavin-containing] A; assay: Irreversible inhibition of rat liver mitochondrial MAO-A using 5-hydroxytriptamine as substrate assessed as substrate consumption at 10 nM measured up to 420 mins; settings: 7 h, 0.01 µM
[8] = target: T1, Amine oxidase [flavin-containing] B; assay: Irreversible inhibition of rat liver mitochondrial MAO-B using phenylethylamine as substrate assessed as substrate consumption at 100 nM measured up to 420 mins; settings: 7 h, 0.1 µM
[9] = target: T3, Acetylcholinesterase; settings: 100 uM
Description: Inhibition of human AChE-induced amyloid beta (1 to 40) aggregation at 100 uM measured every 10 mins for 10 hrs by thioflavin T-based fluorometric analysis

[10] = target: T2, Amine oxidase [flavin-containing] A; assay: Time-dependent inhibition of rat liver mitochondrial MAO-A using 5-hydroxytryptamine at 6 nM by scintillation counting; settings: 0.006 µM
[11] = target: T1, Amine oxidase [flavin-containing] B; assay: Non-competitive inhibition of rat liver mitochondrial MAO-B using phenylethylamine as substrate by Line-Weaver Burk plot analysis
[12] = target: T2, Amine oxidase [flavin-containing] A; assay: Irreversible inhibition of rat liver mitochondrial MAO-A using 5-hydroxytryptamine as substrate at 6 nM preincubated for 30 mins measured after three consecutive washes with buffer; settings: 0.006 µM
[13] = target: T1, Amine oxidase [flavin-containing] B; assay: Reversible inhibition of rat liver mitochondrial MAO-B using phenylethylamine as substrate assessed as substrate consumption at 100 nM preincubated for 30 mins measured up to 420 mins; settings: 7 h, 0.1 µM
[14] = target: Acetylcholinesterase (Electrophorus electricus, UniProt O42275)
Description: Inhibition of Electrophorus electricus AchE using acetylthiocholine iodide as substrate preincubated for 10 mins measured after 15 mins of substrate addition by Ellman's method

[15] = target: T1, Amine oxidase [flavin-containing] B
Description: Inhibition of rat liver mitochondrial MAO-B using [14C]-phenylethylamine after 30 mins by scintillation counting

[16] = target: T2, Amine oxidase [flavin-containing] A
Description: Inhibition of rat liver mitochondrial MAO-A using [14C]-5-hydroxytryptamine after 30 mins by scintillation counting

[17] = target: Cholinesterase (Equus caballus, UniProt P81908)
Cholinesterase (Equus caballus, UniProt P81908), sequence (P81908 whole entry): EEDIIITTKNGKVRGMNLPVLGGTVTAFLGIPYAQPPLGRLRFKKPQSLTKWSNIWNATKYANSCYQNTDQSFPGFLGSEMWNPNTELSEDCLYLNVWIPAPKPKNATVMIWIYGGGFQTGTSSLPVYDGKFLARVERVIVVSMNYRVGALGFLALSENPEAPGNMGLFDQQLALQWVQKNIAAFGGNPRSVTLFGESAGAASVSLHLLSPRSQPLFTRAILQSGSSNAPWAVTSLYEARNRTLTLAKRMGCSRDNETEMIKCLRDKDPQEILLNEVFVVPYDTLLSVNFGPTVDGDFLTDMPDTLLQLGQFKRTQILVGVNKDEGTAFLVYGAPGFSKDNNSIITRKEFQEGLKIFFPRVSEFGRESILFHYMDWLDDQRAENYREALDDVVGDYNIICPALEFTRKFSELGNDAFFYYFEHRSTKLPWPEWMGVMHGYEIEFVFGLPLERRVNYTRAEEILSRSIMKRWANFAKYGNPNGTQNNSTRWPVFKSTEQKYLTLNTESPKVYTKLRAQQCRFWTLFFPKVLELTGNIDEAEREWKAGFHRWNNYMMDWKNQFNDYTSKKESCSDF
Description: Inhibition of equine serum BuchE using butyrylthiocholine iodide as substrate preincubated for 10 mins measured after 15 mins of substrate addition by Ellman's method

Acetylcholinesterase (Electrophorus electricus, UniProt O42275), sequence (O42275 whole entry): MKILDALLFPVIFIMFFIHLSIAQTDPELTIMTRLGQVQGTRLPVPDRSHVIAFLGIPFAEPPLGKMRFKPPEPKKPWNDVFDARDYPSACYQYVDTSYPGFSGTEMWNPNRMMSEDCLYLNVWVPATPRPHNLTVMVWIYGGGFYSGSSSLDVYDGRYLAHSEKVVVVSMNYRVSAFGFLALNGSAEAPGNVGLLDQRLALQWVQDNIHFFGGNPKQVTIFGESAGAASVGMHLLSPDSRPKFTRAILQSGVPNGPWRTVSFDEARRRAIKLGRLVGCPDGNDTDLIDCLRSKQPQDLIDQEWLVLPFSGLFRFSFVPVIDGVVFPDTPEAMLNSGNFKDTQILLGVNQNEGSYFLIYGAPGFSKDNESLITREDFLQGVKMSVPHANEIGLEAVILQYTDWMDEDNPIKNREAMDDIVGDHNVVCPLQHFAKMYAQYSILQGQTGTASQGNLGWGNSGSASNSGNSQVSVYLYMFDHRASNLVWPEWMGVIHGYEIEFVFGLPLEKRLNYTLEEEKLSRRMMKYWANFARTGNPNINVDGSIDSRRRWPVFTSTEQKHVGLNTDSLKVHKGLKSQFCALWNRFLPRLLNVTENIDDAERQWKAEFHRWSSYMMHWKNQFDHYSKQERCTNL
T3 sequence (P22303 whole entry): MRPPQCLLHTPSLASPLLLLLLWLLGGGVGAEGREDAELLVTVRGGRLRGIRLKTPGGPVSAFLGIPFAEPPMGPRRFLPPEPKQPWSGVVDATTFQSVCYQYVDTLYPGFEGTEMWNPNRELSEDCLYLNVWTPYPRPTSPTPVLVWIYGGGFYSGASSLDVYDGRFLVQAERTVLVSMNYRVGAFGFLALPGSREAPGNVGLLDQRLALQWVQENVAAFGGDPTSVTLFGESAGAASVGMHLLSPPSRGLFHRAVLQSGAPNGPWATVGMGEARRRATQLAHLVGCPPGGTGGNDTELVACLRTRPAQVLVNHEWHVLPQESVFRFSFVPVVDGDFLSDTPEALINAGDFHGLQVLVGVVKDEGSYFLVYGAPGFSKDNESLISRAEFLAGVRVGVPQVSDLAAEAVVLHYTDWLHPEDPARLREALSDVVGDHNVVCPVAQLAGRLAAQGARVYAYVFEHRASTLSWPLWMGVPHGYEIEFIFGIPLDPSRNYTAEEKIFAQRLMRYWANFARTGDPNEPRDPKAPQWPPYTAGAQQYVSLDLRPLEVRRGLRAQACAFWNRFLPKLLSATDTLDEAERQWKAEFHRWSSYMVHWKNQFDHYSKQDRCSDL
Cholinesterase (Homo sapiens, UniProt P06276), sequence (P06276 whole entry): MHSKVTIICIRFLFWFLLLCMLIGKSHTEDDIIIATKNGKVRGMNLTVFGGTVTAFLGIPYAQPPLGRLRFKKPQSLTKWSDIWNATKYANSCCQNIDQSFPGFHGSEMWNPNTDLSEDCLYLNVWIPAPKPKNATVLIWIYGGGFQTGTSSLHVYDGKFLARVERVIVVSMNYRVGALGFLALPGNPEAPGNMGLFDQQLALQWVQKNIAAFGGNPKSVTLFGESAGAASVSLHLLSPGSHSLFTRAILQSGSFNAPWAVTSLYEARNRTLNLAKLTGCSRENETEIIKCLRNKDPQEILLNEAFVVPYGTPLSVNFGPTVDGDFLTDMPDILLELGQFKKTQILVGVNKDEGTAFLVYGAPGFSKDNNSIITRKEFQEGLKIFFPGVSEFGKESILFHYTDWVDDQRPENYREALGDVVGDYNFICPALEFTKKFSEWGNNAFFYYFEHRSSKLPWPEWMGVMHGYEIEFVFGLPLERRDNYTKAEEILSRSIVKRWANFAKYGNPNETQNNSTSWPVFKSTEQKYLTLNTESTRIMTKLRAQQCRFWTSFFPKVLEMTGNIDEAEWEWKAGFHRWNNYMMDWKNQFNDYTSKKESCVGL

Question: How did the TDI [1] turn out when `C#CCN(C)Cc1cc2cc(OCCCC3CCN(Cc4ccccc4)CC3)ccc2n1C` was run?
Answer: Active

Question: And the “inhibition (INH)” value [2]?
Answer: Active

Question: What about the IC50 [3] of the same compound?
Answer: 1700 nM

Question: And the activity at 0.045 µM [4]?
Answer: 80.5%

Question: What about the “inhibition (INH)” value [5] of the same compound?
Answer: Active

Question: What about the IC50 [6] of the same compound?
Answer: 380 nM

Question: And the “inhibition (INH)” value [7]?
Answer: Active

Question: What about the “inhibition (INH)” value [8] of the same compound?
Answer: Active

Question: And the inhibition [9]?
Answer: 32.4%

Question: What about the TDI [10] of the same compound?
Answer: Active

Question: And the Ki [11]?
Answer: 11 nM

Question: What about the “inhibition (INH)” value [12] of the same compound?
Answer: Active

Question: And the “inhibition (INH)” value [13]?
Answer: Active

Question: With `C#CCN(C)Cc1cc2cc(OCCCN3CCN(Cc4ccccc4)CC3)ccc2n1C` as the compound, how does the IC50 [14] read?
Answer: > 100000 nM

Question: What about the IC50 [15] of the same compound?
Answer: 1600 nM

Question: And the IC50 [16]?
Answer: 31 nM

Question: Which results are given for `C#CCN(C)Cc1cc2cc(OCCCCC3CCN(Cc4ccccc4)CC3)ccc2n1C`?
Answer: IC50 [15]: 2700 nM; IC50 [16]: 10 nM

Question: `C#CCN(C)Cc1cc2cc(OCCCN3CCC(Cc4ccccc4)CC3)ccc2n1C` was tested. Which IC50 [15] did it give?
Answer: 11000 nM

Question: What does the source list for `C#CCN(C)Cc1cc2cc(OCCN3CCC(Cc4ccccc4)CC3)ccc2n1C`?
Answer: IC50 [14]: > 100000 nM; IC50 [15]: 1400 nM; IC50 [16]: 140 nM

Question: What does the source list for `C#CCN(C)Cc1cc2cc(OCc3ccccc3)ccc2n1C`?
Answer: IC50 [17]: > 100000 nM; IC50 [14]: > 100000 nM
